Laboratory results from BindingDB's records for doi:10.7270/Q2VH5M8G (Nmmlsc, 2010).

target: T1, Regulator of G-protein signaling 16 (Homo sapiens, UniProt O15492); assay: small molecules altering RGS16 interaction with Galphao – biochemical, multiplexed bead flow cytometry, SAR compounds, SAR follow-up (AID 2298); settings: not given
T1 sequence (O15492 whole entry): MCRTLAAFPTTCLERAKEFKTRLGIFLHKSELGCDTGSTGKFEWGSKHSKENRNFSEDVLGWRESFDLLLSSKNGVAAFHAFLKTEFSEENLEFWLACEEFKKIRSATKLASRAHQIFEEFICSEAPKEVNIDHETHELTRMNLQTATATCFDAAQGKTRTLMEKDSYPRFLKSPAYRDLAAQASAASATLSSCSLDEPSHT

EC50 [nM] | SMILES
27 | CN1CCN(C2=C(Cl)C(=O)C(c3cnc(N4CCCCC4)s3)=C(Cl)C2=O)CC1
1050 | CCN=c1scc(C)n1N=Cc1ccc(O)c(O)c1O
> 30000 | O=c1c2ccccc2sn1-c1ccccc1 [2-phenyl-1,2-benzothiazol-3-one]
18 | Cc1cc(C)c2c(=O)n(CC(=O)N3CCN(c4ccccc4)CC3)ccc2n1 [2,4-dimethyl-6-[2-oxidanylidene-2-(4-phenylpiperazin-1-yl)ethyl]-1,6-naphthyridin-5-one]
121 | O=C1C(Cl)=C(N2CCCCC2)C(=O)C(Cl)=C1c1cnc(N2CCCCC2)s1 [MLS000550549]
> 30000 | Cc1cc(C)c2c(n1)CCN(CC(=O)N1CCN(c3ccccc3)CC1)C2=O [2,4-dimethyl-6-[2-oxidanylidene-2-(4-phenylpiperazin-1-yl)ethyl]-7,8-dihydro-1,6-naphthyridin-5-one]
> 30000 | Cc1cccc(N2CCN(C(=O)COc3noc4nc(C)cc(C)c34)CC2C)c1 (configuration not stated) [2-[(4,6-dimethyl-[1,2]oxazolo[5,4-b]pyridin-3-yl)oxy]-1-[3-methyl-4-(3-methylphenyl)piperazin-1-yl]ethanone]
46 | Cc1[nH]n(-c2ccccc2)c(=S)c1/C=N/c1cccc([N+](=O)[O-])c1 [(4E)-5-methyl-4-[(3-nitroanilino)methylene]-2-phenyl-2-pyrazoline-3-thione]
> 30000 | Cc1cccc(N2CCN(C(=O)Cn3ccc4nc(C)cc(C)c4c3=O)CC2C)c1 (configuration not stated) [2,4-dimethyl-6-[2-[3-methyl-4-(3-methylphenyl)piperazin-1-yl]-2-oxidanylidene-ethyl]-1,6-naphthyridin-5-one]
822 | O=C(Cc1csc(N2CCOCC2)n1)NN=Cc1ccc(O)c(O)c1O [SMR000369439]
116 | O=C(COc1ccccc1C(=O)NN=Cc1ccc(O)c(O)c1)NN=Cc1ccc(O)c(O)c1 [N''-[(Z)-(3-hydroxy-4-oxo-1-cyclohexa-2,5-dienylidene)methyl]-2-[2-[[(Z)-(3-hydroxy-4-oxo-1-cyclohexa-2,5-dienylidene)methyl]hydrazo]-2-oxoethoxy]benzohydrazide]
110 | Cc1cccc(N2CCN(C(=O)Cn3sc4nc(C)cc(C)c4c3=O)CC2C)c1 (configuration not stated) [2-[2-keto-2-[3-methyl-4-(m-tolyl)piperazino]ethyl]-4,6-dimethyl-isothiazolo[5,4-b]pyridin-3-one]
405 | Cc1[nH]n(-c2ccccc2)c(=S)c1C=NCCCN=Cc1c(C)[nH]n(-c2ccccc2)c1=S
151 | COc1ccc(C2=CC(=O)C=CC2=O)cc1 [MLS001029846]
29 | NS(=O)(=O)c1ccc(N=NCc2ccc(O)c(O)c2O)c([N+](=O)[O-])c1 [4-[[(E)-(2,3-dihydroxy-4-oxo-1-cyclohexa-2,5-dienylidene)methyl]hydrazo]-3-nitrobenzenesulfonamide]
3510 | CC1(C)OC(=O)C(=Cc2ccc(-c3ccc(S(N)(=O)=O)cc3)o2)C(=O)O1 [SMR000273939]
272 | CC(=O)OCCCNc1cc(Sc2nc3ccccc3s2)c2nonc2c1[N+](=O)[O-] [MLS000521052]
> 30000 | Cc1cccc(N2CCN(C(=O)CN3CCc4nc(C)cc(C)c4C3=O)CC2C)c1 (configuration not stated) [KUC103675N]
5220 | CCC(=O)NC(c1ccc(C)cc1)c1cc([N+](=O)[O-])c2cccnc2c1O (configuration not stated) [MLS000553854]
511 | CN=c1scc(C)n1N=Cc1ccc(O)c(O)c1O [(4E)-2,3-dihydroxy-4-[[(4-methyl-2-methylimino-1,3-thiazol-3-yl)amino]methylidene]cyclohexa-2,5-dien-1-one]
940 | CCN(CC)S(=O)(=O)c1cccc(-c2n[nH]c(=S)n2N=Cc2ccc(C(=O)OC)cc2)c1 [4-[(E)-[3-[3-(diethylsulfamoyl)phenyl]-5-thioxo-1H-1,2,4-triazol-4-yl]iminomethyl]benzoic acid methyl ester]
53 | Cc1cc(Cl)ccc1/N=c1/ssnc1Cl [MLS000539990]
27 | O=c1c2ccccc2sn1-c1ccc(S(=O)(=O)N2CCCC2)cc1 [2-(4-pyrrolidin-1-ylsulfonylphenyl)-1,2-benzothiazol-3-one]
590 | CCN(CC)S(=O)(=O)c1cccc(C(=O)NN=Cc2ccc(O)c(O)c2O)c1
> 30000 | Nc1c(C(=O)NCC2CCCO2)sc2nc3c(c(-c4ccco4)c12)CC/C3=C/c1ccco1 (configuration not stated) [UNM-0000305796]
1430 | Cc1cccc(N2CCN(C(=O)COc3nsc4nc(C)cc(C)c34)CC2C)c1 (configuration not stated)

same assay, conditions: inactive by the depositor's call

EC50 [nM] | SMILES
3680 | CCOc1ccccc1-c1c2cc(O)c(=O)cc-2oc2cc(O)c(O)cc12 [MLS000578271]
